{"source": "patent US9969699B2", "about": "“Cancer cell growth inhibitor, anticancer agent, and method for screening same, as well as novel compound” (Microbial Chemistry Research Foundation, priority 2014, dated 2018)", "key": {"NIH3T3/EGFR vIII cells": {"system": "NIH3T3/EGFR vIII cells", "test": "3D cell culture step (environment without adhesion scaffold), proliferation of NIH3T3/EGFR vIII cells", "type": "cell-based, mouse"}, "U251 cells": {"system": "U251 cells", "test": "3D cell culture step, EGFR vIII gene non-expressing brain tumor cells U251", "type": "cell-based", "conditions": "Test Example 3, U251 cells", "experimental": "(§1) The following 3 brain tumor cells were used as the EGFR vIII gene non-expressing cells. • U251 cells (available from ATCC) • U87MG cells (available from ATCC) • KS-1 cells (available from ATCC) <3D Cell Culture Step>\n(§2) After the 3 days of culture, the number of viable cells was counted by […]-GLO (trademark) Luminescent Cell Viability Assay (available from Promega), which was a method for quantitating ATP in viable cells. A cell proliferation inhibition rate in the 3D cell culture step was calculated according to (Expression 3) below. Cell proliferation inhibition rate(%)=(1−X/Y)×100 (Expression 3)\n(§3) In the (Expression 3), X denotes the number of viable cells when the test substance was added, and Y denotes the number of viable cells when the test substance was not added."}, "NIH3T3 cells": {"system": "NIH3T3 cells", "test": "2D cell culture step (environment with adhesion scaffold), proliferation of NIH3T3 cells", "type": "cell-based", "conditions": "Mus musculus, 72 h; NIH3T3 cells, TC-treated plate, 3 days, […]-GLO; read-out: IC50 2D cell culture step", "experimental": "Note that, as a negative control, the NIH3T3 cells at 2×10^3 cells/100 were seeded to the same plate in a volume of 100 μL per well and cultured at 37° C. in the presence of 5% CO2 for 3 days without the addition of the test substance.\nNote that, Dulbecco's Modified Eagle Medium supplemented with 5% FBS was used for the culture.\nA cell proliferation inhibition rate in the 2D cell culture step was calculated according to (Expression 2) below. Cell proliferation inhibition rate(%)=(1−D/E)×100 (Expression 2)\nIn the (Expression 2), D denotes the number of viable NIH3T3 cells when the test substance was added, and E denotes the number of viable NIH3T3 cells when the test substance was not added."}, "NIH3T3/EGFRWT cells": {"system": "NIH3T3/EGFRWT cells", "test": "3D cell culture step, NIH3T3/EGFRWT cells in EGF-including medium", "type": "cell-based, mouse", "conditions": "Test Example 3, NIH3T3/EGFRWT cells, EGF-including medium", "experimental": "as §2, §3"}, "KS-1 cells": {"system": "KS-1 cells", "test": "3D cell culture step, EGFR vIII gene non-expressing brain tumor cells KS-1", "type": "cell-based", "conditions": "Test Example 3, KS-1 cells", "experimental": "as §1, §2, §3"}, "U87MG cells": {"system": "U87MG cells", "test": "3D cell culture step, EGFR vIII gene non-expressing brain tumor cells U87MG", "type": "cell-based", "conditions": "Test Example 3, U87MG cells", "experimental": "as §1, §2, §3"}}, "data": [{"smiles": "COc1cc2ncnc(Nc3cccc(Cl)c3)c2cc1OC", "note": "[AG1478, reference compound]", "values": [{"measurement": "IC50", "setting": "NIH3T3/EGFR vIII cells; Mus musculus, 72 h, NIH3T3/EGFR vIII cells, Ultra Low Attachment plate, 3 days, […]-GLO", "result": 1, "unit": "µM"}, {"measurement": "inhibiting activity against scaffold-independent proliferation capacity", "setting": "NIH3T3/EGFR vIII cells; Test Example 3, NIH3T3/EGFR vIII cells", "result": "exhibited an inhibiting activity"}, {"measurement": "inhibition of proliferation of NIH3T3 cells expressing EGFR mutant vIII in the 3D cell culture step", "setting": "NIH3T3/EGFR vIII cells; result in words from Table 1", "result": "inhibited proliferation"}, {"measurement": "inhibiting activity against scaffold-independent proliferation capacity", "setting": "U251 cells", "result": "did not exhibit an inhibiting activity"}, {"measurement": "IC50", "setting": "NIH3T3 cells", "result": 50, "unit": "µM"}, {"measurement": "inhibiting activity against scaffold-independent proliferation capacity", "setting": "NIH3T3/EGFRWT cells", "result": "exhibited an inhibiting activity"}, {"measurement": "inhibiting activity against scaffold-independent proliferation capacity", "setting": "KS-1 cells", "result": "did not exhibit an inhibiting activity"}, {"measurement": "inhibiting activity against scaffold-independent proliferation capacity", "setting": "U87MG cells", "result": "did not exhibit an inhibiting activity"}]}]}
